Results published in patent publication US12201625B2, “Single nucleotide polymorphic alleles of human DP-2 gene for detection of susceptibility to hair growth inhibition by PGD2” (THE TRUSTEES OF THE UNIVERSITY OF PENNSYLVANIA, priority 2015, dated 2025).

How the values were obtained:
mouse hair follicles = conditions: cited from earlier work
human hair follicles [1] = conditions: cited from earlier work
human hair follicles [2] = test: Hair follicle organ (explant) culture, growth over seven days; format: cell-based
Description: Tissue: Scalp was obtained from normally discarded human skin samples from CHTN and from men and women undergoing hair transplantation (IRB exempted study Protocol #818053). Hair follicle organ culture: Hair follicles were microdissected from discarded tissues from hair transplant patients and cultured for seven days as described by Philpott et al. (J. Dermatol. Sci. Suppl: S55-72. (1994)) in the presence or absence of PGD2 and/or DP-2 antagonist, with a change of culture medium every two days. Hair follicles were photographed at the beginning and end of the culture period. Hair follicle growth was measured from the photographs using Image J software.

C57BL mice = test: Topical application to depilated back skin of mice, hair cycle stage and hair length; format: in vivo, mouse
Description: Animal studies: The back skins of C57BL mice at 6-7 week were depilated. DP-2 antagonists were dissolved in 95% EtOH/2% Glycerol/3% PEG. 100 μL of each compound was spread on the shaved back skin once daily for 2 weeks starting from day 8 post depilation. At day 22 post depilation hair shafts were plucked for hair length measurement and skins were harvested for histological assessment of hair cycle stages.

[3] = system: hair follicle keratinocytes; test: Immunofluorescence staining of cultured hair follicles for Ki67 and active caspase 3; format: cell-based, human
Description: Immunostaining: Immunofluorescence analysis with anti-Ki67 and anti-Caspase-3 was performed on cryosections of cultured hair follicles or whole mount hair follicles fixed in 4% PFA. Images were photographed with Leica fluorescence microscope.

[4] = topical once per day for two weeks, day 22 post depilation

| Compound | hair growth (mouse hair follicles) | hair growth (human hair follicles [1]) | anti-PGD2 activity at high doses (human hair follicles [2]; 99.5% pure preparation of AM211, FIG. 3B) | rescue of hair follicles from growth inhibition by PGD2 (human hair follicles [2]; AM211 at 10 nM, PGD2 10 μM, 7 days) | anti-PGD2 effect at high doses (human hair follicles [2]; AM211 preparation purified to 95% homogeneity, FIG. 3A) | hair follicles entering catagen (hair cycle stage) (C57BL mice; topical once per day for two weeks from day 8 post depilation, harvested day 22) | hair shaft length (C57BL mice; [4]) | skin area with hair follicles continuing to grow (C57BL mice; [4]) | patients whose hair follicles exhibited PGD2-mediated growth inhibition (human hair follicles [2]; Group 1, of 35 patients tested) | patients whose hair follicles exhibited PGD2-mediated growth inhibition (human hair follicles [2]; Group 2, of 65 patients tested) | patients whose hair follicles exhibited PGD2-mediated growth inhibition (human hair follicles [2]; Groups 1 and 2 combined, 100 samples) | growth of human hair follicles in explant culture (human hair follicles [2]; PGD2 10 μM added to culture medium, 7 days) | inhibitory effect on hair growth, dose dependence (human hair follicles [2]; explant culture, FIG. 1B) | apoptosis of hair follicle keratinocytes (active caspase 3) [3] | proliferation of hair follicle keratinocytes (Ki67) [3] |
| --- | --- | --- | --- | --- | --- | --- | --- | --- | --- | --- | --- | --- | --- | --- | --- |
| CCCCC/C=C/C=C1/C(=O)C=C[C@@H]1C/C=C\CCCC(=O)O [15-dPGJ2, 15-deoxy-D12,14-prostaglandin J2] | inhibit hair growth | inhibit hair growth | – | – | – | – | – | – | – | – | – | – | – | – | – |
| CCN(Cc1cc(C(F)(F)F)ccc1-c1cc(CC(=O)O)ccc1OC)C(=O)NCc1ccccc1 [AM211] | – | – | sustained anti-PGD2 activity | rescued hair follicles from the inhibition by PGD2 | reduction in anti-PGD2 effect | dose-dependent delay in hair follicles entering catagen | longer hair shaft | larger area with hair follicles continuing to grow | – | – | – | – | – | – | – |
| CCCCC[C@H](O)/C=C/[C@H]1C(=O)C[C@H](O)[C@@H]1C/C=C\CCCC(=O)O [PGD2, prostaglandin D2] | inhibit hair growth | inhibit hair growth | – | – | – | – | – | – | 21 | 31 | 52 | severely inhibited | dose-dependent manner | promoted apoptosis | suppressed proliferation |
